In this test the target is Axl phosphorylation in 293MSR-AxlWT6 cells (Homo sapiens (Human), UniProt P30530). Nature of the test: Cellular Axl phosphorylation ELISA assay (Gas6-stimulated 293MSR-AxlWT6 cells). Format: cell-based. The settings on record: Table 4A, read-out: CELL AXL IC50. The protocol: Cellular Axl Phosphorylation ELISA Assay
After 6-7 hrs in tissue culture incubator at 37° C. 5% CO2, medium was removed, serum-free medium was added (with 0.04% bovine serum albumin) and plates were returned to incubator where they remained overnight. […] Media was then removed and lysis buffer was added to wells and shaken at 4° C. for 30 min to generate protein lysates. Subsequently, phosphorylation of Axl was assessed by a sandwich ELISA method using a DuoSet IC Human Phospho-Axl ELISA assay kit (R&D System), an immobilized mouse anti-human Axl antibody and an anti-phospho-tyrosine-HRP antibody as a detection antibody. Antibody-coated plates were (a) incubated in presence of protein lysates at room temperature for 2 hrs, (b) washed seven times in 0.1% Tween 20 in PBS, (c) incubated with secondary antibody (a horseradish peroxidase-conjugated […]) for 2 hrs, (d) washed seven times again, (e) TMB peroxidase substrate (Bio-Rad) was added to initiate a colorimetric reaction and stopped by adding 0.2 N H2SO4, and (f) measured at OD 450 nm using a spectrophotometer. IC50 values were calculated by concentration-response curve fitting using a four-parameter analytic method and reported in μM.
For Table 4B, IC50 values were calculated by concentration-response curve fitting using a four-parameter analytic method and reported in nM.
Background: An ELISA detects its analyte on a solid surface through an enzyme-linked reagent.

Chain of Axl phosphorylation in 293MSR-AxlWT6 cells (P30530 26-894): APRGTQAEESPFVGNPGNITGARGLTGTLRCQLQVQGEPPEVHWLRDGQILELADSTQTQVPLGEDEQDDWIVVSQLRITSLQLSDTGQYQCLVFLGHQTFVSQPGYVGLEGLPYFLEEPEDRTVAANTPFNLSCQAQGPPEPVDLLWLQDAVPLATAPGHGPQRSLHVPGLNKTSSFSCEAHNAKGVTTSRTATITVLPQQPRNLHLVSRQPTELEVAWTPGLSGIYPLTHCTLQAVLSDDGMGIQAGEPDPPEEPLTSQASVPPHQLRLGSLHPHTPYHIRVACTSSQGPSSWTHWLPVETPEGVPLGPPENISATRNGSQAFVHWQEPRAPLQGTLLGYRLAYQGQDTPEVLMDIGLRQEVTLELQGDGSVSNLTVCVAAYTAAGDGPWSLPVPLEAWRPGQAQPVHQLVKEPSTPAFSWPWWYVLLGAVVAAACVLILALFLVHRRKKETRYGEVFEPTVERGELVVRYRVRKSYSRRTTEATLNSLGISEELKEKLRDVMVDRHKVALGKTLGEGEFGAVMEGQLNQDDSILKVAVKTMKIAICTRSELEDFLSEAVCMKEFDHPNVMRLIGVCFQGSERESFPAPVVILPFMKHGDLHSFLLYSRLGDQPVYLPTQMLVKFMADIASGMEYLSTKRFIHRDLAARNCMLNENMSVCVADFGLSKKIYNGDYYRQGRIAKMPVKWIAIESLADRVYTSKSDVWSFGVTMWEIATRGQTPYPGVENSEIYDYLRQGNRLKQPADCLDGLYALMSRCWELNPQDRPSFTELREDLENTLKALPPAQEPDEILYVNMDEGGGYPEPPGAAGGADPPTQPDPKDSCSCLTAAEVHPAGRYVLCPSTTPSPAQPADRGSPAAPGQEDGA

Consider `N#CC1(COc2nc(C(=O)NCC(F)(F)F)nc(N3CCC(COc4cccnc4N)CC3)n2)CC1` [Example 91, 4-(4-{[(2-aminopyridin-3-yl)oxy]methyl}piperidin-1-yl)-6-[(1-cyanocyclopropyl)methoxy]-N-(2,2,2-trifluoroethyl)-1,3,5-triazine-2-carboxamide], for which the IC50 (commonly the midpoint of a concentration-inhibition curve) stood at 64.9 nM. As for `N#CC1(COc2nc(C(=O)NCC(F)(F)F)nc(N3CCC(c4c[nH]c5nccnc45)CC3)n2)CC1` [Example 132, 4-(4-(5H-pyrrolo[2,3-b]pyrazin-7-yl)piperidin-1-yl)-6-((1-cyanocyclopropyl)methoxy)-N-(2,2,2-trifluoroethyl)-1,3,5-triazine-2-carboxamide], the figure is 231 nM; as for `CCNC(=O)c1nc(OCC2(C#N)CC2)nc(N2CCC(c3n[nH]c4ncccc34)CC2)n1` [Example 133, 4-(4-(1H-pyrazolo[3,4-b]pyridin-3-yl)piperidin-1-yl)-6-((1-cyanocyclopropyl)methoxy)-N-ethyl-1,3,5-triazine-2-carboxamide], 285 nM. As for `COc1ccnc2[nH]cc(C3CCN(c4cc(C(=O)N[C@H](C)CO)nc(OC[C@H]5C[C@H]5C#N)n4)CC3)c12` [Example 377, 2-{[(1S,2R)-2-cyanocyclopropyl]methoxy}-N-[(2R)-1-hydroxypropan-2-yl]-6-[4-(4-methoxy-1H-pyrrolo[2,3-b]pyridin-3-yl)piperidin-1-yl]pyrimidine-4-carboxamide], the figure is 0.4 nM; as for `COc1ccnc2[nH]cc(C3CCN(c4nc(OC[C@H]5C[C@H]5C#N)nc(C(=O)NC5(C)CCC5)n4)CC3)c12` [Example 378, 4-{[(1S,2R)-2-cyanocyclopropyl]methoxy}-6-[4-(4-methoxy-1H-pyrrolo[2,3-b]pyridin-3-yl)piperidin-1-yl]-N-(1-methylcyclobutyl)-1,3,5-triazine-2-carboxamide], 0.24 nM. As for `COc1ccnc2[nH]cc(C3CCN(c4nc(OC[C@H]5C[C@H]5C#N)nc(C(=O)N[C@@H](C)C(F)(F)F)n4)CC3)c12` [Example 379, 4-{[(1S,2R)-2-cyanocyclopropyl]methoxy}-6-[4-(4-methoxy-1H-pyrrolo[2,3-b]pyridin-3-yl)piperidin-1-yl]-N-[(2S)-1,1,1-trifluoropropan-2-yl]-1,3,5-triazine-2-carboxamide], the figure is 0.2 nM; as for `COc1ccnc2[nH]cc(C3CCN(c4nc(OC[C@H]5C[C@H]5C#N)nc(C(=O)NCC(F)(F)F)n4)CC3)c12` [Example 380, 4-{[(1S,2R)-2-cyanocyclopropyl]methoxy}-6-[4-(4-methoxy-1H-pyrrolo[2,3-b]pyridin-3-yl)piperidin-1-yl]-N-(2,2,2-trifluoroethyl)-1,3,5-triazine-2-carboxamide], 0.72 nM; as for `COc1ccnc2[nH]nc(C3CCN(c4cc(C(=O)N[C@@H](C)C(F)(F)F)nc(OC[C@H]5CCO5)n4)CC3)c12` [Example 381, 6-[4-(4-methoxy-1H-pyrazolo[3,4-b]pyridin-3-yl)piperidin-1-yl]-2-[(2R)-oxetan-2-ylmethoxy]-N-[(2S)-1,1,1-trifluoropropan-2-yl]pyrimidine-4-carboxamide], 0.77 nM. Regarding `C[C@H](CO)NC(=O)c1cc(N2CCC(c3n[nH]c4ncccc34)CC2)nc(OC[C@@H]2CCOC2)n1` [Example 382, N-[(2R)-1-hydroxypropan-2-yl]-6-[4-(1H-pyrazolo[3,4-b]pyridin-3-yl)piperidin-1-yl]-2-[(3R)-tetrahydrofuran-3-ylmethoxy]pyrimidine-4-carboxamide], the IC50 amounted to 154 nM.

`C[C@H](CO)NC(=O)c1cc(N2CCC(c3n[nH]c4ncccc34)CC2)nc(OC[C@H]2CCOC2)n1` [Example 383, N-[(2R)-1-hydroxypropan-2-yl]-6-[4-(1H-pyrazolo[3,4-b]pyridin-3-yl)piperidin-1-yl]-2-[(3S)-tetrahydrofuran-3-ylmethoxy]pyrimidine-4-carboxamide]: the IC50 amounted to 120 nM.
